Assay [1] concerns the target T1, M1 muscarinic receptor (Rattus norvegicus, UniProt P08482).
T1 sequence (P08482 1-460): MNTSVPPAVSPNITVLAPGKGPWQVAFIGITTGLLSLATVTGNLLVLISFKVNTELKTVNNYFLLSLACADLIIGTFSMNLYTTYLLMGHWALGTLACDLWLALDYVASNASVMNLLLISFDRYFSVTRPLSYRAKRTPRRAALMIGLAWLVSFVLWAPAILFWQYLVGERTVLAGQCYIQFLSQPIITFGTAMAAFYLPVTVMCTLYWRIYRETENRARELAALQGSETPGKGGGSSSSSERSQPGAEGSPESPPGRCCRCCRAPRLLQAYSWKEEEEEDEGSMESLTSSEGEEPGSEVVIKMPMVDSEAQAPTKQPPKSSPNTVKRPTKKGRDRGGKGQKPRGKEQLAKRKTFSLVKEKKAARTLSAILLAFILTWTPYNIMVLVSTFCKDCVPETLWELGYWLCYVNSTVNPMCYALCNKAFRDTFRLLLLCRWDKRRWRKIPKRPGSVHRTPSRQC
The assay can be described thus: M1 receptor binding ([^3 H]-pirenzepine). Further details: species or system rat (male Sprague-Dawley). The protocol: Compounds are tested for their ability to affect M1 muscarinic binding through use of [^3 H]-pirenzepine ([^3 H]PZ) as a prototypic M1 receptor ligand. Male Sprague-Dawley (Charles River) rats are used. Dose selection is typically in the concentration range of 10^-9 to 10^-4 M. Test and reference compounds are dissolved and diluted in water or ethanol and are then added to the assay buffer. The appropriate vehicle is added to the assay buffer for control testing.
The rats (approximately 300 gm body weight) have free access to food and water and are housed in groups of four to six. On the test day, the rats are euthanized by decapitation and brain tissue is dissected and homogenized using a hand-held teflon-coated pestle, in 20 volumes of 0.32M sucrose (20 strokes at 4° C.). After centrifugation (747×g for 10 minutes at 4° C.), the resultant supernatant is decanted and recentrifuged (18677×g for 20 minutes at 4° C.). The resultant pellet is resuspended in the original volume of 0.32M sucrose and frozen. After thawing, the suspension is diluted (1:1 v/v) with 10 mM Na2 HPO4 /KH2 PO4 buffer (pH=7.4). [^3 H]PZ (0.5 nM, 0.04 μCi) is then incubated with a 100 μl sample of the tissue suspension in the above buffer (1 ml final volume, including a 10 μl sample of test compound or vehicle). […] After 60 minutes of incubation at 25° C. (in the dark), the binding is terminated by vacuum filtration onto Whatman GF/B filters (pre-soaked for 60 minutes in 0.1% (w/v) polyethylenimine to reduce non-specific binding). After three washes with the previously mentioned buffer (4° C., 3 ml/wash), the vacuum is allowed to run for two minutes before the filter-trapped radioactivity is assayed by liquid scintillation spectroscopy.
Data are presented as the percent inhibition ([control-test]/control×100%) or enhancement ([test-control]/control×100%) of [^3 H]PZ binding by the test or reference compound. The IC50 value (the drug concentration which causes a 50% inhibition of specific [^3 H]PZ binding) is calculated through the use of the EDOSE program (with probit transformation written by a person for use in STAT80). Increases in [^3 H]PZ are reported as percent increase (versus control) for a given test drug concentration.

Assay [2] deals with T2, M2 receptors (Rattus norvegicus, UniProt P10980).
T2 sequence (P10980 1-466): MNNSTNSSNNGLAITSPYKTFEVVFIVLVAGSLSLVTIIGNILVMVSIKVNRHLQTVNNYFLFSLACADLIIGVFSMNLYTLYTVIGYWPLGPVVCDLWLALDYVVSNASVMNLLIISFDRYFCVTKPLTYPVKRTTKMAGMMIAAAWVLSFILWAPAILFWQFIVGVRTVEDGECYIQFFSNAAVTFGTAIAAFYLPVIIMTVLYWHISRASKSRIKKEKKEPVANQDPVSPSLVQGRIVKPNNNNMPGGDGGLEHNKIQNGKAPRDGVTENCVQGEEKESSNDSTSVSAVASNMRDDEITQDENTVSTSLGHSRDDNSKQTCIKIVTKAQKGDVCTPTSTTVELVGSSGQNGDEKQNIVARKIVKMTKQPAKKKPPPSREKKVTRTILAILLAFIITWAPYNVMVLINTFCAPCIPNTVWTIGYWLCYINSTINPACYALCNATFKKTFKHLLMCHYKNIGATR
Description: biochemical. It counts as binding.

Assay [3] deals with M2 receptors. Description: biochemical. It counts as binding. Conditions: Table 1; ratio of M2 IC50 to M1 IC50.
Assay [4] concerns scopolamine-induced hyperactivity, a proposed muscarinic M1 -mediated effect. The assay can be described thus: Scopolamine-induced hyperactivity (locomotor activity). It counts as in vivo, rat. Conditions: for Total activity: N=10. How it is done: Compounds were evaluated for the ability to attenuate scopolamine-induced hyperactivity, a proposed muscarinic M1 -mediated effect. Animals were permitted to habituate for 30 minutes in locomotor activity chambers (Digiscan, Omnitech; Columbus, Ohio) in which infrared detectors were used to measure movement in 3 axes. The animals were then injected i.p. with vehicle alone, scopolamine alone (1.7 mg/kg) or both scopolamine and one dose of the test compound. Animals were then replaced in the chambers and locomotor activity was measured for an additional 1 hour period. Total activity measures (vertical+horizintal movements) were collected and statistically analyzed in four 15 minute periods.

[5] abbreviates: Table 1, rat brain tissue, [^3 H]PZ 0.5 nM, read-out: ^3 H-Pirenzepine M1 IC50.

Structures can show the parent of a compound that is named as a salt. Where two headings read alike, the source gives them in different places.

By IC50 is commonly meant the point on the concentration scale where inhibition reaches its midpoint. As for “3-[[[(3-chlorophenyl)amino]carbonyl]oxy]-N,N,N-trimethyl-1-propynaminium chloride [reference compound]”, the IC50 in assay [1] (typical results, reference drugs, read-out: IC50, [^3 H]PZ binding (M1)) was 1.3 µM; in assay [2] (typical results, reference drugs, read-out: IC50, [^3 H]QNB binding (M2)), 42 µM.

In the case of `Cl.Cl.c1ccc2nc(NCCCN3CCOCC3)ccc2c1` [Example 2, N-[3-(4-Morpholinyl)propyl]-2-quinolinamine dihydrochloride], the IC50 in assay [1] (setting [5]) came to 2.5 µM; in assay [2] (read-out: ^3 H-QNB M2 IC50), 116 µM. Further, the M2/M1 in assay [3] is reported as 46.

On to `Cc1cc(NCCCN2CCN(C)CC2)nc2ccccc12` [Example 3, 4-Methyl-N-[3-(4-methyl-1-piperazinyl)propyl]-2-quinolinamine (E)-2-butenedioate (1:2) hemihydrate], for which the values for the 50% inhibitory concentration (IC50) in assay [1] (setting [5]) and in assay [2] (read-out: ^3 H-QNB M2 IC50) were 0.6 µM and 28 µM, respectively. Also, the M2/M1 in assay [3] is listed as 46.

Regarding `Cc1cc(NCCCCN2CCOCC2)nc2ccccc12` [Example 4, 4-Methyl-N-[4-(4-morpholinyl)butyl]-2-quinolinamine (E)-2-butenedioate (1:1.15)], the IC50 is 0.54 µM in assay [1] (setting [5]) and 22 µM in assay [2] (read-out: ^3 H-QNB M2 IC50). Moreover, the M2/M1 in assay [3] was 41.

Consider `Cc1cc(NCCN2CCOCC2)nc2ccccc12` [Example 5, 4-Methyl-N-[2-(4-morpholinyl)ethyl]-2-quinolinamine (E)-2-butenedioate (3:2) quarter hydrate], for which the IC50 in assay [1] (setting [5]) was determined as 9.7 µM; in assay [2] (read-out: ^3 H-QNB M2 IC50), 200 µM. The M2/M1 in assay [3] is 21.

For the compound `Cc1cc(NCCCCN2CCN(C)CC2)nc2ccccc12` [Example 6, 4-Methyl-N-[4-(4-methyl-1-piperazinyl)butyl]-2-quinolinamine (E)-2-butenedioate (1:2) one and three quarter hydrate], the IC50 was determined as 0.37 µM in assay [1] (setting [5]) and 5.5 µM in assay [2] (read-out: ^3 H-QNB M2 IC50). For the same compound, the M2/M1 in assay [3] is 15.

`Cc1cc(NCCCN2CCCC2=O)nc2ccccc12` [Example 7, 4-Methyl-N-[3-(1-pyrrolidin-2-on)propyl]-2-quinolinamine hydrochloride three-quarter hydrate]: the IC50 in assay [1] (setting [5]) was 1.3 µM; in assay [2] (read-out: ^3 H-QNB M2 IC50), 20 µM. In addition, the M2/M1 in assay [3] worked out at 15.

Consider `Cc1cc(NCCCN2CCCCC2)nc2ccccc12` [Example 8, 4-Methyl-N-[3-(1-piperidinyl)propyl]-2-quinolinamine (E)-2-butenedioate (1:1) hemihydrate], for which the figures for the IC50 in assay [1] (setting [5]) and in assay [2] (read-out: ^3 H-QNB M2 IC50) were 0.42 µM and 4.6 µM, respectively. Also, in assay [3], the M2/M1 is reported as 11.

For the compound `CCc1cc(NCCCN2CCOCC2)nc2ccccc12` [Example 9, 4-Ethyl-N-[3-(4-morpholinyl)propyl]-2-quinolinamine dihydrochloride three quarter hydrate], the figures for the IC50 in assay [1] (setting [5]) and in assay [2] (read-out: ^3 H-QNB M2 IC50) were 2 µM and 44 µM, respectively. The M2/M1 in assay [3] is listed as 22.

`c1ccc2c(C3CCCCC3)cc(NCCCN3CCOCC3)nc2c1` [Example 10, 4-Cyclohexyl-N-[3-(4-morpholinyl)propyl]-2-quinolinamine dihydrochlorideone quarter hydrate]: the values for the concentration for half-maximal inhibition (IC50) in assay [1] (setting [5]) and in assay [2] (read-out: ^3 H-QNB M2 IC50) were 2.3 µM and 13 µM, respectively. Further, the M2/M1 in assay [3] amounted to 6.

For `CCN(CC)CCCNc1cc(C)c2ccccc2n1` [Example 11, N,N-Diethyl-N'-(4-methyl-2-quinolinyl)-1,3-propanediamine dihydrochloride hemihydrate], the figures for the IC50 in assay [1] (setting [5]) and in assay [2] (read-out: ^3 H-QNB M2 IC50) were 0.21 µM and 18 µM, respectively. In assay [3], the M2/M1 is reported as 86.

On to `Cc1cc(NCCN(C)C)nc2ccccc12.O=C(O)/C=C/C(=O)O` [Example 12, N,N-Dimethyl-N'-(4-methyl-2-quinolinyl)-1,2-ethanediamine (E)-2-butenedioate (1:1)], for which the figures for the IC50 in assay [1] (setting [5]) and in assay [2] (read-out: ^3 H-QNB M2 IC50) were 1.32 µM and 35 µM, respectively. The M2/M1 in assay [3] was determined as 27.

Take `Cc1cc(NCCCN(C)C)nc2ccccc12.O=C(O)/C=C/C(=O)O.O=C(O)/C=C/C(=O)O` [Example 13, N,N-Dimethyl-N'-(4-methyl-2-quinolinyl)-1,3-propanediamine (E)-2-butenedioate (1:2)]: the results for the IC50 in assay [1] (setting [5]) and in assay [2] (read-out: ^3 H-QNB M2 IC50) were 0.82 µM and 21 µM, respectively. Besides, the M2/M1 in assay [3] amounted to 26.

With `O=C1CCCN1CC#CCN1CCCC1` [Oxotremorine sesquifumarate, reference compound], the IC50 in assay [1] turned out to be 0.11 µM; in assay [2] it was 1.3 µM.

Take `O=C1CCCN1CC#CCN1CCCC1` [Oxotremorine]: in assay [4] (Rattus norvegicus, ip, read-out: minimum effective dose), the minimal effective dose was found to be 0.3 mg/kg. For the same compound, the “effect on scopolamine hyperactivity at lower doses” value in assay [4] (doses below 0.3 mg/kg) is given as “some effect of oxotremorine was seen at lower doses”. Moreover, the Total activity in assay [4] (scopolamine + oxotremorine 0.03 mg/kg, 15 min) is reported as 3020; in assay [4] (scopolamine + oxotremorine 0.03 mg/kg, 30 min) it was 4083; in assay [4] (scopolamine + oxotremorine 0.03 mg/kg, 45 min) it was 3332; in assay [4] (scopolamine + oxotremorine 0.03 mg/kg, 60 min), 2265; in assay [4] (scopolamine + oxotremorine 0.1 mg/kg, 15 min) it was 5709; in assay [4] (scopolamine + oxotremorine 0.1 mg/kg, 30 min), 4305. For the same compound, the Total activity in assay [4] (scopolamine + oxotremorine 0.1 mg/kg, 45 min) was found to be 3725; in assay [4] (scopolamine + oxotremorine 0.1 mg/kg, 60 min), 2571; in assay [4] (scopolamine + oxotremorine 0.3 mg/kg, 15 min), 2523; in assay [4] (scopolamine + oxotremorine 0.3 mg/kg, 30 min), 1819; in assay [4] (scopolamine + oxotremorine 0.3 mg/kg, 45 min), 2351; in assay [4] (scopolamine + oxotremorine 0.3 mg/kg, 60 min), 1573.

The values are drawn from patent US5770734A, “N-substituted-2-aminoquinolines useful for treating hypofunction of the cholinergic system” (American Home Products Corporation, priority 1992, dated 1998).
